Data from paper PMC11204507, “Mechanistic Insights into the Neurotoxicity of 2,5-Dimethoxyphenethylamines (2C) and Corresponding N-(2-methoxybenzyl)phenethylamine (NBOMe) Drugs” (Journal of Xenobiotics, 2024).
“And” between values parts separate entries of the source, which are not always exact repeats. Equal values may be shown once.

Experiments:
[1] = system: differentiated SH-SY5Y cells; assay: Total glutathione (tGSH) levels, DTNB-GSH recycling assay; format: cell-based, human; conditions: control 100.0%
Description: Glutathione has a critical role in cellular physiology, playing multiple essential roles in maintaining cellular health and function, including antioxidant defense, detoxification, and cellular signaling. The 5,5′-dithiobis(2-nitrobenzoic acid) (DTNB)-GSH recycling assay was used to measure total GSH (tGSH), which includes the reduced (GSH) and oxidized (GSSG) forms of glutathione. The assay relies on the reaction of GSH with DTNB, producing the yellow-colored 5-thio-2-nitrobenzoic acid (TNB). Thus, the TNB generated is directly proportional to the amount of GSH present in the sample [31].
Thus, the SH-SY5Y cells were seeded onto 6-well plates (25,000 cells/cm^2) following the previously described seeding and differentiation protocol. On the day of the experiment, the cells were exposed to different concentrations of the tested drugs (EC20 and EC50) for 24 h (37 °C, 5% CO2). At the end of the incubation period, the cells were centrifuged (5 min, 250 g, 4 °C). For the analysis of extracellular GSH levels, the supernatants were collected, and proteins precipitated with 30% HClO4 for at least 30 min (4 °C). For the analysis of intracellular GSH levels, after collecting the supernatants, the cells were treated with 5% HClO4 for at least 30 min (4 °C). Subsequently, the acidic samples were collected from the plates and centrifuged (5 min, 16,000× g, 4 °C), and the supernatants were stored until further analysis (−80 °C). To assess protein content, the pellets were resuspended in 1M NaOH, maintained at 4 °C overnight, and stored until further analysis (−20 °C). A Bio-Rad DC™ protein assay kit (Bio-Rad Laboratories, Hercules, CA, USA) was used to analyze protein content, in accordance with the manufacturer’s guidelines.
Before the tGSH quantification, the acidic samples were diluted (1:2) with 5% HClO4, and the diluted samples/standards were neutralized with an ice-cold KHCO3 solution (1:1) and centrifuged (5 min, 16,000× g, 4 °C).
Then, 100 µL of supernatant from each sample/standard was transferred into a 96-well plate and 65 µL of an extemporaneous reagent solution (0.68 mM NADPH and 3.96 mM DTNB prepared in a 7.5 pH phosphate buffer) was added to each well, and the plates were incubated for 15 min at 30 °C. After 15 min, 40 μL of a 10 U/mL glutathione reductase solution was added to each well and the formation of 5-thio-2-nitrobenzoic acid (TNB) was monitored every 10 s for 3 min (kinetic mode) at 415 nm in a multi-well plate reader (PowerWaveX, BioTek Instruments, Winooski, VT, USA).
The GSH levels were standardized to protein content. The results are presented as a percentage relative to the control cells (0 µM). A minimum of 6 independent experiments were conducted, in duplicate.
Glutamate/cysteine ligase (GCL), also recognized as gamma-glutamylcysteine synthetase (γ-GCS), is a key enzyme in the first step of glutathione biosynthesis, as it catalyzes the reaction between glutamate and cysteine to produce γ-glutamylcysteine. […] The SH-SY5Y cells were seeded onto 6-well plates (25,000 cells/cm^2) following the previously described seeding and differentiation protocol. On the day of the experiment, the cells were incubated with BSO (100 µM) for 24 h (37 °C, 5% CO2) and the quantification of GSH intracellular levels was achieved according to the previously described method in Section 2.11.

[2] = system: differentiated SH-SY5Y cells; assay: Mitochondrial membrane potential, JC-1 dye; format: cell-based, human; conditions: control 100.0%
Description: Mitochondrial membrane potential (ΔΨm) is a valuable parameter that reflects the energy status and functional integrity of cells, and the JC-1 dye is widely used as an indicator of ΔΨm. In healthy cells with high ΔΨm, JC-1 forms J-aggregates that emit red fluorescence. In apoptotic or unhealthy cells with low ΔΨm, JC-1 remains in its monomeric form and emits green fluorescence. The ratio of red to green fluorescence intensity is proportional to the degree of polarization of the mitochondrial membrane (a higher ratio indicates a more polarized membrane).
Thus, the SH-SY5Y cells were seeded onto 24-well plates (25,000 cells/cm^2) following the previously described seeding and differentiation protocol. On the day of the experiment, the cells were exposed to different concentrations of the tested drugs (EC20 and EC50) for 24 h (37 °C, 5% CO2). CCCP (100 µM, 2 h) was used as a positive control for mitochondrial membrane depolarization. At the end of the incubation period, the medium was removed, and the cells were incubated, for 30 min, with 10 µM JC-1 under light protection (37 °C, 5% CO2). Subsequently, the plates were centrifuged (5 min, 300× g, room temperature), the supernatants were rejected, and the cells were washed 2 times with warm HBSS with calcium and magnesium. Fluorescence was recorded at the wavelengths of 485 nm excitation and 535 nm emission for JC-1 monomers and 535 nm excitation and 595 nm emission wavelengths for J-aggregates in a multi-well plate reader (PowerWaveX, BioTek Instruments, Winooski, VT, USA). The results are presented as the percentage of JC-1 red/green fluorescence ratio relative to the control cells, and a minimum of 5 independent experiments were conducted in triplicate.

[3] = system: differentiated SH-SY5Y cells; assay: Intracellular calcium levels, Fluo-4 AM probe; format: cell-based, human; conditions: control 100.0%
Description: Calcium is a vital second messenger for almost every cellular process, including cellular signaling, muscle function, neurotransmitter release, membrane function, and apoptosis. Therefore, its levels inside cells are strictly controlled to maintain cellular homeostasis. The intracellular calcium levels were measured using the cell-permeable Fluo-4 AM probe. Inside the cells, Fluo-4 AM is cleaved to its active and fluorescent form—Fluo-4—which has a high affinity for calcium ions (Ca^2⁺). Thus, its fluorescence emission is directly proportional to the concentration of calcium ions in the intracellular environment.
Therefore, the SH-SY5Y cells were seeded onto 96-well plates (25,000 cells/cm^2) following the previously described seeding and differentiation protocol. […] The average value for negative control (EGTA-treated cells) was subtracted from every other condition and then the minimum average value was subtracted from the maximum average value for every other condition. The results are presented as a percentage relative to the control cells (0 µM). A minimum of 5 independent experiments were conducted in triplicate.

serotonergic B65 cells = system: serotonergic B65 cells; design: method as in doi:10.1007/s11419-020-00527-w; conditions: 50 μM, 3 h exposure; cited from earlier work
MAO-A and MAO-B = conditions: rat model; cited from earlier work
[4] = drug at its EC50, immediately after exposure

Structure (SMILES) | intracellular tGSH levels, % of control cells ([1]; drug at its EC20, 24 h) [%] | intracellular tGSH levels, % of control cells ([1]; drug at its EC50, 24 h) [%] | mitochondrial membrane polarization (JC-1 red/green ratio), % of the control cells ([2]; drug at its EC20, 24 h) [%] | mitochondrial membrane polarization (JC-1 red/green ratio), % of the control cells ([2]; drug at its EC50, 24 h) [%] | Ca2+ intracellular levels, % of control cells [3, 4] | mitochondrial production of ROS (serotonergic B65 cells) | deamination by MAO-A and MAO-B (MAO-A and MAO-B) | Ca2+ intracellular levels, % of control cells ([3]; drug at its EC20, immediately after exposure) [%]
CCCSc1cc(OC)c(CCNCc2ccccc2OC)cc1OC.Cl [25T7-NBOMe, 2-(2,5-dimethoxy-4-(propylthio)phenyl)-N-(2-methoxybenzyl)ethan-1-aminium chloride] | 72.2 | 52.0 | 90.8 | 76.8 | > 300% and 320.9% | – | – | –
COc1cc(SC(C)C)c(OC)cc1CCN.Cl [2C-T-4, 2-(4-(isopropylthio)-2,5-dimethoxyphenyl)ethan-1-aminium chloride] | 81.4 | 75.8 | 58.3 | 56.1 | – | no significant alterations | – | –
CCCSc1cc(OC)c(CCN)cc1OC.Cl [2C-T-7, 2-(2,5-dimethoxy-4-(propylthio)phenyl)ethan-1-aminium chloride] | 84.2 | 82.4 | 50.8 | 50.0 | 146.5% | increase in the mitochondrial production of ROS | both isoenzymes can catalyze the deamination | 129.9
COc1cc(SC(C)C)c(OC)cc1CCNCc1ccccc1OC.Cl [25T4-NBOMe, 2-(4-(isopropylthio)-2,5-dimethoxyphenyl)-N-(2-methoxybenzyl)ethan-1-aminium chloride] | 71.2 | 60.3 | 83.5 | 70.5 | – | – | – | –
CCSc1cc(OC)c(CCNCc2ccccc2OC)cc1OC.Cl [25T2-NBOMe, 2-(4-(ethylthio)-2,5-dimethoxyphenyl)-N-(2-methoxybenzyl)ethan-1-aminium chloride] | 54.4 | 49.2 | 78.7 | 74.3 | – | – | – | –
CCSc1cc(OC)c(CCN)cc1OC.Cl [2C-T-2, 2-(4-(ethylthio)-2,5-dimethoxyphenyl)ethan-1-aminium chloride] | 87.0 | 80.0 | 58.4 | 55.2 | – | increase in the mitochondrial production of ROS | both isoenzymes can catalyze the deamination | –
